Experiment: Inhibition of HCV NS5B RdRp
Parameters: species or system Hepacivirus hominis

Row | Structure (SMILES) | IC50 [µM]
1 | CCOC(=O)/C=C/c1ccc(NC(=O)C2(NC(=O)c3ccc4nc(-c5ccc(F)cc5)c(-c5ccc(F)cc5)nc4c3)CCC2)cc1 | 37
2 | O=C(O)/C=C/c1ccc(NC(=O)C2(NC(=O)c3ccc4nc(-c5ccc(F)cc5)c(-c5ccc(F)cc5)nc4c3)CCC2)cc1 | 0.69
3 | O=C(N[C@@H](Cc1c[nH]c2ccc(O)cc12)C(=O)O)c1ccc2nc(-c3ccc(F)cc3)c(C3CCCCC3)nc2c1 | 4.6
4 | NC(=O)COc1ccc2[nH]cc(C[C@H](NC(=O)c3ccc4nc(-c5ccc(F)cc5)c(-c5ccc(F)cc5)nc4c3)C(=O)O)c2c1 | 3.2
5 | O=C(O)c1ccc2nc(-c3ccccn3)c(-c3ccccn3)nc2c1 | > 100
6 | O=C(N[C@@H](Cc1c[nH]c2ccc(O)cc12)C(=O)O)c1ccc2nc(C3CCCCC3)c(-c3ccc(F)cc3)nc2c1 | 4.1
7 | CCOC(=O)/C=C/c1ccc(NC(=O)C2(NC(=O)c3ccc4nc(-c5ccc(F)cc5)c(-c5ccc(F)cc5)nc4c3)CCCC2)cc1 | > 100
8 | CCOC(=O)/C=C/c1ccc(NC(=O)C2(NC(=O)c3ccc4nc(-c5ccc(F)cc5)c(C5CCCCC5)nc4c3)CCC2)cc1 | 1.3
9 | CCOC(=O)/C=C/c1ccc(NC(=O)c2ccc3nc(-c4ccc(F)cc4)c(-c4ccc(F)cc4)nc3c2)cc1 | > 100
10 | O=C(O)c1ccc2nc(-c3ccc(F)cc3)c(-c3ccc(F)cc3)nc2c1 | 5.5
11 | Cc1ccc(-c2nc3ccc(C(=O)O)cc3nc2-c2ccc(C)cc2)cc1 | 40
12 | COc1cccc(-c2nc3ccc(C(=O)O)cc3nc2-c2cccc(OC)c2)c1 | > 100
13 | O=C(O)/C=C/c1ccc(NC(=O)c2ccc3nc(C4CCCCC4)c(-c4ccccc4)nc3c2)cc1 | 1.3
14 | O=C(O)/C=C/COc1ccc2[nH]cc(C[C@H](NC(=O)c3ccc4nc(-c5ccc(F)cc5)c(-c5ccc(F)cc5)nc4c3)C(=O)O)c2c1 | 2.2
15 | O=C(Nc1ccc(-c2ccc(C(=O)O)o2)cc1)c1ccc2nc(C3CCCCC3)c(-c3ccccc3)nc2c1 | 1.8
16 | O=C(O)/C=C/c1ccc(NC(=O)c2ccc3nc(-c4ccc(F)cc4)c(-c4ccc(F)cc4)nc3c2)cc1 | 17
17 | CCOC(=O)/C=C/c1ccc(NC(=O)C2(NC(=O)c3ccc4nc(C5CCCCC5)c(-c5ccc(F)cc5)nc4c3)CCC2)cc1 | 5.1
18 | O=C(O)/C=C/c1ccc(NC(=O)c2ccc3nc(C4CCCCC4)c(-c4ccc(F)cc4)nc3c2)cc1 | 4.1
19 | O=C(Nc1ccc(-c2ccc(C(=O)O)o2)cc1)c1ccc2nc(-c3ccccc3)c(C3CCCCC3)nc2c1 | 1.6
20 | O=C(O)/C=C/c1ccc(NC(=O)c2ccc3nc(-c4ccc(F)cc4)c(C4CCCCC4)nc3c2)cc1 | 4.6
21 | O=C(O)/C=C/c1ccc(NC(=O)C2(NC(=O)c3ccc4nc(-c5ccc(F)cc5)c(-c5ccc(F)cc5)nc4c3)CCCC2)cc1 | 1.2
22 | O=C(O)c1ccc2nc(-c3ccccc3)c(-c3ccccc3)nc2c1 | 79
23 | O=C(O)COc1ccc2[nH]cc(C[C@H](NC(=O)c3ccc4nc(-c5ccc(F)cc5)c(-c5ccc(F)cc5)nc4c3)C(=O)O)c2c1 | 1.7

Further lines, results first:

Row | IC50 [µM] | Structure (SMILES)
24 | > 100 | COC(=O)[C@H](Cc1c[nH]c2ccccc12)NC(=O)c1ccc2nc(-c3ccc(F)cc3)c(-c3ccc(F)cc3)nc2c1
25 | > 100 | COC(=O)[C@H](Cc1c[nH]c2ccc(O)cc12)NC(=O)c1ccc2nc(-c3cccc(OC)c3)c(-c3cccc(OC)c3)nc2c1
26 | 3.7 | O=C(N[C@@H](Cc1c[nH]c2ccccc12)C(=O)O)c1ccc2nc(C3CCCCC3)c(-c3ccccc3)nc2c1
27 | > 100 | COC(=O)[C@H](Cc1c[nH]c2ccccc12)NC(=O)c1ccc2nc(-c3ccc(C)cc3)c(-c3ccc(C)cc3)nc2c1
28 | 72 | COC(=O)[C@H](Cc1c[nH]c2ccc(O)cc12)NC(=O)c1ccc2nc(-c3ccccc3)c(-c3ccccc3)nc2c1
29 | 16 | O=C(N[C@@H](Cc1c[nH]c2ccc(O)cc12)C(=O)O)c1ccc2nc(-c3ccco3)c(-c3ccco3)nc2c1
30 | 8.6 | COC(=O)[C@H](Cc1c[nH]c2ccc(OCC(N)=O)cc12)NC(=O)c1ccc2nc(-c3ccc(F)cc3)c(-c3ccc(F)cc3)nc2c1
31 | 100 | COC(=O)COc1ccc2[nH]cc(C[C@H](NC(=O)c3ccc4nc(-c5ccc(F)cc5)c(-c5ccc(F)cc5)nc4c3)C(=O)OC)c2c1
32 | > 100 | COC(=O)[C@H](Cc1c[nH]c2ccccc12)NC(=O)c1ccc2nc(-c3cccc(OC)c3)c(-c3cccc(OC)c3)nc2c1
33 | 11 | O=C(N[C@@H](Cc1c[nH]c2ccc(O)cc12)C(=O)O)c1ccc2nc(-c3ccccc3)c(-c3ccccc3)nc2c1
34 | 3.4 | O=C(N[C@@H](Cc1c[nH]c2ccccc12)C(=O)O)c1ccc2nc(C3CCCCC3)c(-c3ccc(F)cc3)nc2c1
35 | > 100 | O=C(N[C@@H](Cc1c[nH]c2ccccc12)C(=O)O)c1ccc2nc(-c3ccccn3)c(-c3ccccn3)nc2c1
36 | 1.3 | O=C(N[C@@H](Cc1c[nH]c2ccc(O)cc12)C(=O)O)c1ccc2nc(-c3ccc(F)cc3)c(-c3ccc(F)cc3)nc2c1
37 | 26 | COC(=O)[C@H](Cc1c[nH]c2ccc(O)cc12)NC(=O)c1ccc2nc(-c3ccco3)c(-c3ccco3)nc2c1
38 | 15 | COc1cccc(-c2nc3ccc(C(=O)N[C@@H](Cc4c[nH]c5ccc(O)cc45)C(=O)O)cc3nc2-c2cccc(OC)c2)c1
39 | 6.1 | Cc1ccc(-c2nc3ccc(C(=O)N[C@@H](Cc4c[nH]c5ccc(O)cc45)C(=O)O)cc3nc2-c2ccc(C)cc2)cc1

Row | IC50 [µM] | Structure (SMILES)
40 | 49 | COC(=O)[C@H](Cc1c[nH]c2ccc(O)cc12)NC(=O)c1ccc2nc(-c3ccc(C)cc3)c(-c3ccc(C)cc3)nc2c1
41 | 1.9 | O=C(N[C@@H](Cc1c[nH]c2ccccc12)C(=O)O)c1ccc2nc(-c3ccc(F)cc3)c(-c3ccc(F)cc3)nc2c1
42 | > 100 | COC(=O)[C@H](Cc1c[nH]c2ccccc12)NC(=O)c1ccc2nc(-c3ccco3)c(-c3ccco3)nc2c1
43 | 33 | O=C(N[C@@H](Cc1c[nH]c2ccccc12)C(=O)O)c1ccc2nc(-c3ccco3)c(-c3ccco3)nc2c1
44 | 5 | O=C(N[C@@H](Cc1c[nH]c2ccc(O)cc12)C(=O)O)c1ccc2nc(C3CCCCC3)c(-c3ccccc3)nc2c1
45 | 15 | O=C(N[C@@H](Cc1c[nH]c2ccccc12)C(=O)O)c1ccc2nc(-c3ccccc3)c(-c3ccccc3)nc2c1
46 | 17 | O=C(O)c1ccc2nc(-c3ccco3)c(-c3ccco3)nc2c1
47 | > 100 | COC(=O)[C@H](Cc1c[nH]c2ccccc12)NC(=O)c1ccc2nc(-c3ccccn3)c(-c3ccccn3)nc2c1
48 | 1.8 | O=C(N[C@@H](Cc1c[nH]c2ccccc12)C(=O)O)c1ccc2nc(-c3ccccc3)c(C3CCCCC3)nc2c1
49 | 53 | COC(=O)/C=C/COc1ccc2[nH]cc(C[C@H](NC(=O)c3ccc4nc(-c5ccc(F)cc5)c(-c5ccc(F)cc5)nc4c3)C(=O)OC)c2c1
50 | 0.6 | O=C(N[C@@H](Cc1c[nH]c2ccc(O)cc12)C(=O)O)c1ccc2nc(-c3ccccc3)c(C3CCCCC3)nc2c1
51 | 1.6 | O=C(N[C@@H](Cc1c[nH]c2ccccc12)C(=O)O)c1ccc2nc(-c3ccc(F)cc3)c(C3CCCCC3)nc2c1
52 | 5.5 | COC(=O)[C@H](Cc1c[nH]c2ccc(O)cc12)NC(=O)c1ccc2nc(-c3ccc(F)cc3)c(-c3ccc(F)cc3)nc2c1
53 | > 100 | COc1cccc(-c2nc3ccc(C(=O)N[C@@H](Cc4c[nH]c5ccccc45)C(=O)O)cc3nc2-c2cccc(OC)c2)c1
54 | > 100 | COC(=O)[C@H](Cc1c[nH]c2ccccc12)NC(=O)c1ccc2nc(-c3ccccc3)c(-c3ccccc3)nc2c1
